The values below come from patent US11465983B2, “USP7 inhibitors for treating multiple myeloma” (Dana-Farber Cancer Institute, Inc., priority 2017, dated 2022).

Where only a bound is given, the exact number is not on record here.

Sequence of USP7 (Q93009 208-560 limits assumed): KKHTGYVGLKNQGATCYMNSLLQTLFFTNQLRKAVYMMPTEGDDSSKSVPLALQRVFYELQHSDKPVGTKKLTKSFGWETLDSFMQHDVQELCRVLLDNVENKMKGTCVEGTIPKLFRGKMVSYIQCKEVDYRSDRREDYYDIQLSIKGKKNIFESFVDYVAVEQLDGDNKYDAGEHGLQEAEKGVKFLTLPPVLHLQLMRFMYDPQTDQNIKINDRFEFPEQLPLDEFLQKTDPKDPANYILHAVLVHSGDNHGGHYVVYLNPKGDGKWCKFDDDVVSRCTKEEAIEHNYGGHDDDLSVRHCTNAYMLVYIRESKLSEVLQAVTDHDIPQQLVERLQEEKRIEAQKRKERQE

In the first experiment the target is USP7 (Homo sapiens, UniProt Q93009). The experiment is described as follows: Ub-AMC assay (USP7 assay). In kind it is biochemical. More on the design: fused on or other part: His tag from pET28aLIC; removed by thrombin for the catalytic domain, no removal step given for the full length. To be noted: USP7 assay. As to the method:
USP7 and mutants were tested for their activity in Ubiquitin-AMC assay in presence or absence of inhibitors. […] For the same assay USP7 full length WT and Q351 mutant were used at 50 nM. […] The reaction was incubated 30 min at room temperature prior to the addition of 2 uM Ubiquitin-AMC (Boston Biochem) substrate. […] The calculated initial rate values were plotted against inhibitor concentrations to determine IC50s. All the experimental data were plotted using Prism GraphPad. FIG. 2A illustrates the structure guided optimization for the inhibition of USP7.
ND refers to not disclosed.
Usually IC50 stands for the point on the concentration scale where inhibition reaches its midpoint. Low values mean higher potency, high ones lower potency. For `CN1CCN(CCC(=O)Nc2ccc3c(=O)n(CC4(O)CCN(C(=O)C(Cc5ccccc5)c5ccccc5)CC4)cnc3c2)CC1` (stereo not drawn) [Compound 49], the IC50 is more than 10 µM.

Compound `C[C@H](CC(=O)N1CCC(O)(Cn2cnc3cc(N)ccc3c2=O)CC1)c1ccccc1` [Compound 101] showed an IC50 of 0.2 to 1 µM.

In turn, `O=C(CC1c2ccccc2-c2ccccc21)N1CCC(O)(Cn2cnc3cc(Cl)ccc3c2=O)CC1` [Compound 88] came in with an IC50 of more than 10 µM.

For `O=C(C1CCc2ccccc2C1)N1CCC(O)(Cn2cnc3cc(Cl)ccc3c2=O)CC1` (stereo not drawn) [Compound 25], the IC50 was more than 10 µM.

As to `O=C(CCl)NCCC(=O)N1CCC(O)(Cn2cnc3cc(Cl)ccc3c2=O)CC1` [Compound 44], the IC50 was more than 10 µM.

Turning to `CN(CC(=O)N1CCC(O)(Cn2cnc3cc(Cl)ccc3c2=O)CC1)c1ccccc1` [Compound 79], the IC50 is more than 10 µM.

Take `O=C(CCc1ccccc1)N1CCC(O)(Cn2cnc3cc([N+](=O)[O-])ccc3c2=O)CC1` [Compound 56]: the half-inhibitory concentration (IC50) was more than 10 µM.

In the case of `CC(=O)Nc1ccc2c(=O)n(CC3(O)CCN(C(=O)C[C@@H](C)c4ccccc4)CC3)cnc2c1` [Compound 102], the half-maximal inhibitory concentration (IC50) is 0.2 to 1 µM.

`N[C@H](Cc1ccccc1)C(=O)N1CCC(O)(Cn2cnc3cc(Cl)ccc3c2=O)CC1` [Compound 21] returned an IC50 of more than 10 µM.

Regarding `CCN(CC(=O)N1CCC(O)(Cn2cnc3cc(Cl)ccc3c2=O)CC1)c1ccccc1` [Compound 80], the IC50 was more than 10 µM.

In the case of `Nc1ccc2c(=O)n(CC3(O)CCN(C(=O)CCc4ccccc4)CC3)cnc2c1` [Compound 57], the IC50 is more than 10 µM.

Take `CC(=O)Nc1ccc2c(=O)n(CC3(O)CCN(C(=O)CC(C)c4ccccc4)CC3)cnc2c1` (stereo not drawn) [Compound 86]: the IC50 fell in the range of 0.2 to 1 µM.

Turning to `O=C(NCCCC(=O)N1CCC(O)(Cn2cnc3cc(Cl)ccc3c2=O)CC1)c1ccc2c(Cl)c3c(nc2c1)CCCC3` [Compound 84], the IC50 lay within 1 to 10 µM.

`C[C@H](CC(=O)N1CCC(O)(Cn2cnc3c(N)cccc3c2=O)CC1)c1ccccc1` [Compound 103]: the half-inhibitory concentration (IC50) is 1 to 10 µM.

For `O=C(CC(c1ccccc1)c1ccccc1)N1CCC(O)(Cn2cnc3cc(Cl)ccc3c2=O)CC1` [Compound 82], the IC50 is 1 to 10 µM.

The compound “7-Chloro-3-((4-hydroxy-1-(3-phenylpropyl)piperidin-4-yl)methyl)quinazolin-4(3H)-one [Compound 4]” came in with a half-inhibitory concentration (IC50) of more than 10 µM.

In turn, `O=C(CCc1ccc(Br)cc1)N1CCC(O)(Cn2cnc3cc(Cl)ccc3c2=O)CC1` [Compound 23] came in with an IC50 of more than 10 µM.

In turn, `C[C@H](CC(=O)N1CCC(O)(Cn2cnc3cc(NC(=O)CCN(C)C)ccc3c2=O)CC1)c1ccccc1` [Compound 15, (R)-3-(Dimethylamino)-N-(3-((4-hydroxy-1-(3-phenylbutanoyl)piperidin-4-yl)methyl)-4-oxo-3,4-dihydroquinazolin-7-yl)propanamide] showed an IC50 of less than 0.2 µM.

For `O=C(CCc1cccnc1)N1CCC(O)(Cn2cnc3cc(Cl)ccc3c2=O)CC1` [Compound 35], the IC50 was more than 10 µM.

In turn, `CCC(Cc1ccccc1)C(=O)N1CCC(O)(Cn2cnc3cc(Cl)ccc3c2=O)CC1` (stereo not drawn) [Compound 94] had an IC50 of 1 to 10 µM.

Consider `O=C(NCCCCC(=O)N1CCC(O)(Cn2cnc3cc(Cl)ccc3c2=O)CC1)c1ccc2c(c1)CCCN2C(=O)CCl` [Compound 19], for which the IC50 lay within 1 to 10 µM.

On to `O=C(CCc1ccccn1)N1CCC(O)(Cn2cnc3cc(Cl)ccc3c2=O)CC1` [Compound 34], for which the half-inhibitory concentration (IC50) is more than 10 µM.

`C[C@@H](c1ccccc1)N(C)C(=O)N1CCC(O)(Cn2cnc3cc(Cl)ccc3c2=O)CC1` [Compound 42] gave an IC50 of more than 10 µM.

The compound `O=c1c2ccc(Cl)cc2ncn1CC1(O)CCN(c2cccnc2)CC1` [Compound 77] showed a half-inhibitory concentration (IC50) of more than 10 µM.

As for `O=C(NCc1ccccc1)N1CCC(O)(Cn2cnc3cc(Cl)ccc3c2=O)CC1` [Compound 36], the IC50 is more than 10 µM.

The compound `O=C(CCc1ccccc1)N1CCC(Cn2cnc3cc(Cl)ccc3c2=O)CC1` [Compound 60] returned a 50% inhibitory concentration (IC50) of more than 10 µM.

`CC(C(=O)N1CCC(O)(Cn2cnc3cc(Cl)ccc3c2=O)CC1)C(C)c1ccccc1` (stereo not drawn) [Compound 93] showed a 50% inhibitory concentration (IC50) of 1 to 10 µM.

`O=C(CCc1ccc([N+](=O)[O-])cc1)N1CCC(O)(Cn2cnc3cc(Cl)ccc3c2=O)CC1` [Compound 61] registered a half-maximal inhibitory concentration (IC50) of more than 10 µM.

Take `O=C(C#Cc1ccccc1)N1CCC(O)(Cn2cnc3cc(Cl)ccc3c2=O)CC1` [Compound 67]: the IC50 was more than 10 µM.

`O=C(N1CCC(O)(Cn2cnc3cc(Cl)ccc3c2=O)CC1)N(Cc1ccccc1)Cc1ccccc1` [Compound 40] registered an IC50 of more than 10 µM.

In turn, `C=CCCC(=O)N1CCC(O)(Cn2cnc3cc(Cl)ccc3c2=O)CC1` [Compound 20] had a 50% inhibitory concentration (IC50) of more than 10 µM.

`CC(C)(C)C(=O)Nc1ccc2c(=O)n(CC3(O)CCN(C(=O)CCc4ccccc4)CC3)cnc2c1` [Compound 105]: the IC50 is more than 10 µM.

Consider `C[C@H](Cc1ccccc1)C(=O)N1CCC(O)(Cn2cnc3cc(Cl)ccc3c2=O)CC1` [Compound 72], for which the IC50 lay within 0.2 to 1 µM.

`O=C(/C=C/c1ccccc1)N1CCC(O)(Cn2cnc3cc(Cl)ccc3c2=O)CC1` [Compound 26] displayed a half-maximal inhibitory concentration (IC50) of more than 10 µM.

Compound `CC(=O)Nc1ccc2c(=O)n(CC3(O)CCN(C(=O)CCc4ccccc4)CC3)cnc2c1` [Compound 64] showed an IC50 of 1 to 10 µM.

`CN1CCN(CCC(=O)Nc2ccc3c(=O)n(CC4(O)CCN(C(=O)CC(c5ccccc5)c5ccccc5)CC4)cnc3c2)CC1` [Compound 48]: the IC50 was less than 0.2 µM.

`COc1ccccc1CCC(=O)N1CCC(O)(Cn2cnc3cc(Cl)ccc3c2=O)CC1` [Compound 87]: the IC50 is more than 10 µM.

The compound `O=C(NCCCn1cnc2cc(Cl)ccc2c1=O)c1ccc2c(Cl)c3c(nc2c1)CCCC3` [Compound 85] returned an IC50 of more than 10 µM.

The compound `C[C@@H](Cc1ccccc1)C(=O)N1CCC(O)(Cn2cnc3cc(Cl)ccc3c2=O)CC1` [Compound 73] had an IC50 of more than 10 µM.

`CCN(Cc1ccccc1)C(=O)N1CCC(O)(Cn2cnc3cc(Cl)ccc3c2=O)CC1` [Compound 39] gave an IC50 of 0.2 to 1 µM.

On to `CN(Cc1ccccc1)C(=O)N1CCC(O)(Cn2cnc3cc(Cl)ccc3c2=O)CC1` [Compound 38], for which the concentration for half-maximal inhibition (IC50) is 0.2 to 1 µM.

The compound `O=C(N[C@@H](Cc1ccccc1)C(=O)N1CCC(O)(Cn2cnc3cc(Cl)ccc3c2=O)CC1)c1ccc2c(Cl)c3c(nc2c1)CCCC3` [Compound 99] gave an IC50 of 1 to 10 µM.

For the compound `O=C(C[C@H](O)c1ccccc1)N1CCC(O)(Cn2cnc3cc(Cl)ccc3c2=O)CC1` [Compound 33], the IC50 was more than 10 µM.

`O=C(CCc1ccc(F)cc1)N1CCC(O)(Cn2cnc3cc(Cl)ccc3c2=O)CC1` [Compound 54] came in with a half-inhibitory concentration (IC50) of 0.2 to 1 µM.

For the compound `O=C(C1CCCN1c1ccccc1)N1CCC(O)(Cn2cnc3cc(Br)ccc3c2=O)CC1` (stereo not drawn) [Compound 65], the IC50 is more than 10 µM.

Turning to `COc1ccc(CCC(=O)N2CCC(O)(Cn3cnc4cc(Cl)ccc4c3=O)CC2)cc1` [Compound 53], the IC50 was more than 10 µM.

`C=CC(=O)NCCCC(=O)N1CCC(O)(Cn2cnc3cc(Cl)ccc3c2=O)CC1` [Compound 46] came in with a 50% inhibitory concentration (IC50) of more than 10 µM.

The compound `CC(CC(=O)N1CCC(O)(Cn2cnc3cc(NC(=O)CCN4CCN(C)CC4)ccc3c2=O)CC1)c1ccccc1` (stereo not drawn) [Compound 12] showed a half-maximal inhibitory concentration (IC50) of 0.2 to 1 µM.

The compound `C[C@H](CC(=O)N1CCC(O)(Cn2cnc3cc(Cl)ccc3c2=O)CC1)c1ccccc1` [Compound 1, (R)-7-Chloro-3-((4-hydroxy-1-(3-phenylbutanoyl)piperidin-4-yl)methyl)quinazolin-4(3H)-one] came in with an IC50 of less than 0.2 µM.

`Cc1cccc(CCC(=O)N2CCC(O)(Cn3cnc4cc(Cl)ccc4c3=O)CC2)c1` [Compound 89] registered a half-maximal inhibitory concentration (IC50) of more than 10 µM.

As for `O=C([C@@H]1C[C@H]1c1ccccc1)N1CCC(O)(Cn2cnc3cc(Cl)ccc3c2=O)CC1` [Compound 74], the 50% inhibitory concentration (IC50) is more than 10 µM.

Regarding `N[C@@H](Cc1ccccc1)C(=O)N1CCC(O)(Cn2cnc3cc(Cl)ccc3c2=O)CC1` [Compound 22], the IC50 was more than 10 µM.

For the compound `O=C(NCCCC(=O)N1CCC(Cn2cnc3cc(Cl)ccc3c2=O)CC1)c1ccc2c(Cl)c3c(nc2c1)CCCC3` [Compound 100], the 50% inhibitory concentration (IC50) was more than 10 µM.

For `O=C(C1Cc2ccccc2C1)N1CCC(O)(Cn2cnc3cc(Cl)ccc3c2=O)CC1` [Compound 81], the IC50 was more than 10 µM.

Regarding `COC(Cc1ccccc1)C(=O)N1CCC(O)(Cn2cnc3cc(Cl)ccc3c2=O)CC1` (stereo not drawn) [Compound 92], the IC50 was in the range of 1 to 10 µM.

`CC(C)C(CC(=O)N1CCC(O)(Cn2cnc3cc(NC(=O)CCN4CCN(C)CC4)ccc3c2=O)CC1)c1ccccc1` (stereo not drawn) [Compound 13]: the 50% inhibitory concentration (IC50) lay in the range of 0.2 to 1 µM.

`O=C(COc1ccccc1)N1CCC(O)(Cn2cnc3cc(Cl)ccc3c2=O)CC1` [Compound 31]: the concentration for half-maximal inhibition (IC50) is more than 10 µM.

For `O=c1c2ccc(Cl)cc2ncn1CC1(O)CCN(c2ccc([N+](=O)[O-])cn2)CC1` [Compound 78], the half-inhibitory concentration (IC50) is more than 10 µM.

In turn, `O=C(CCn1cccc1)N1CCC(O)(Cn2cnc3cc(Cl)ccc3c2=O)CC1` [Compound 51] had a concentration for half-maximal inhibition (IC50) of more than 10 µM.

Regarding `O=C(CF)N[C@@H](Cc1ccccc1)C(=O)N1CCC(O)(Cn2cnc3cc(Cl)ccc3c2=O)CC1` [Compound 62], the IC50 is more than 10 µM.

In turn, `[N-]=[N+]=NCCOCCOCC(=O)Nc1ccc2c(=O)n(CC3(O)CCN(C(=O)CCc4ccccc4)CC3)cnc2c1` [Compound 63] gave an IC50 of more than 10 µM.

As to `C[C@@H](CC(=O)N1CCC(O)(Cn2cnc3cc(NC(=O)CCN4CCN(C)CC4)ccc3c2=O)CC1)c1ccccc1` [Compound 11, (S)—N-(3-((4-Hydroxy-1-(3-phenylbutanoyl)piperidin-4-yl)methyl)-4-oxo-3,4-dihydroquinazolin-7-yl)-3-(4-methylpiperazin-1-yl)propanamide], the IC50 was less than 0.2 µM.

The experiment is the same for the next values; noted with them: USP7 inhibition, FIG. 2A.
In the case of `C[C@@H](CC(=O)N1CCC(O)(Cn2cnc3cc(NC(=O)CCN4CCN(C)CC4)ccc3c2=O)CC1)c1ccccc1` [Compound 11, (S)—N-(3-((4-Hydroxy-1-(3-phenylbutanoyl)piperidin-4-yl)methyl)-4-oxo-3,4-dihydroquinazolin-7-yl)-3-(4-methylpiperazin-1-yl)propanamide], the “fold less active than its enantiomer compound 10” value worked out at 80 fold.
